Data published in patent US12509444B2, “Compounds and methods for CD73 modulation and indications therefor” (Plexxikon Inc., priority 2019, dated 2025).

How the values were obtained:
[1] = target: T1, Human CD73 (amino acid residues 27-549) (Homo sapiens, UniProt P21589); test: CD73 enzymatic assay (luciferase-based indirect assay, CellTiter-Glo); format: biochemical; details: 0.4 nM CD73, 150 μM AMP, 1 hour at room temperature
T1 construct: Human CD73 (amino acid residues 27-549); His tag (N); made in house; host or cells: E. coli
T1 sequence (P21589 27-549): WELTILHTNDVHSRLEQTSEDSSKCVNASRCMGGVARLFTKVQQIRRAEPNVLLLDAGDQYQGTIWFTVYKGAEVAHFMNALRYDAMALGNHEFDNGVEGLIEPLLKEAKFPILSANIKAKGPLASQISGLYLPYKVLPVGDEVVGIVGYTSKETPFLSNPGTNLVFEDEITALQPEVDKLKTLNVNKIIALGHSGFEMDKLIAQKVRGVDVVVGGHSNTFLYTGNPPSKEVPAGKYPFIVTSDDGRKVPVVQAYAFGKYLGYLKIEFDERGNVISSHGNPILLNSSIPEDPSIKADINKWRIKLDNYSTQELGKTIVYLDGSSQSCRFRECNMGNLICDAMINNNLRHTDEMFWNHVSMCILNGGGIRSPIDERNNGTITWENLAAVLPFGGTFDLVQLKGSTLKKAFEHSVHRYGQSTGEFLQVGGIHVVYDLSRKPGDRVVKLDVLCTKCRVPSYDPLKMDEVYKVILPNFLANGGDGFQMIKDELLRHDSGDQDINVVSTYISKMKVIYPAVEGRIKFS
How it was run: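 Residual AMP inhibits luciferase, so luminescence reports CD73 turnover; read with CellTiter-Glo 2.0 plus 1 μM final ATP, 30 min. Reaction used 0.4 nM N-His CD73 (27-549, E. coli), 150 μM AMP, HEPES pH 7.4 with Tween 20, 1 h at room temperature. IC50 fitted by nonlinear regression.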

human CD73 = target: T2, human CD73 (Homo sapiens, UniProt P21589); test: Inhibitor activity against CD73 in cell based assay (CD73 expressing CHO-K1 cells); details: CHO-K1 cells expressing human CD73, 150 μM AMP, 4 hours of incubation; read-out: CHO-K1 CELL VARIANT: CD73 IC50
T2 construct: expressed in transfected cells
T2 sequence (P21589 27-549): T1 sequence (P21589 27-549)
How it was run: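 Residual supernatant AMP was quantified via CellTiter-Glo luminescence (1 μM ATP added, 30 min, room temperature) after a 4 h exposure of human CD73-expressing CHO-K1 cells to 150 μM AMP plus compound, top final 10 μM, 8 points. IC50 came from nonlinear regression of percent inhibition.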

Row | SMILES | IC50 [1] [µM] | IC50 (human CD73) [µM]
1 | O=C(CO)N[C@H]1CC[C@H](NC(=O)O[C@@H]2CCN(c3cn[nH]c(=O)c3Cl)C2)CC1 [P-0164, (R)-1-(5-chloro-6-oxo-1,6-dihydropyridazin-4-yl)pyrrolidin-3-yl ((1r,4R)-4-(2-hydroxyacetamido)cyclohexyl) carbamate] | 0.001 to 10 | 0.001 to 10
2 | N#Cc1c(N2CC[C@@H](OC(=O)NC3CCNCC3)C2)cn[nH]c1=O [P-0166, (R)-1-(5-cyano-6-oxo-1,6-dihydropyridazin-4-yl)pyrrolidin-3-yl piperidin-4-ylcarbamate] | 0.001 to 10 | 0.001 to 10
3 | N[C@H]1C[C@H](NC(=O)O[C@@H]2CCN(c3cn[nH]c(=O)c3Cl)C2)C1 [P-0167, (R)-1-(5-chloro-6-oxo-1,6-dihydropyridazin-4-yl)pyrrolidin-3-yl ((1r,3R)-3-aminocyclobutyl)carbamate] | 0.001 to 10 | 0.001 to 10
4 | O=C(Nc1ccc(F)cc1)N[C@H]1C[C@H](NC(=O)O[C@@H]2CCN(c3cn[nH]c(=O)c3Cl)C2)C1 [P-0168, (R)-1-(5-chloro-6-oxo-1,6-dihydropyridazin-4-yl)pyrrolidin-3-yl ((1r,3R)-3-(3-(4-fluorophenyl)ureido)cyclobutyl) carbamate] | 0.001 to 10 | 0.001 to 10
5 | CCOC(=O)N[C@H]1C[C@H](NC(=O)O[C@@H]2CCN(c3cn[nH]c(=O)c3Cl)C2)C1 [P-0169, (R)-1-(5-chloro-6-oxo-1,6-dihydropyridazin-4-yl)pyrrolidin-3-yl ethyl ((1R,3r)-cyclobutane-1,3-diyl)dicarbamate] | 0.001 to 10 | 0.001 to 10
6 | O=C(N[C@H]1C[C@H](NS(=O)(=O)c2ccccc2)C1)O[C@@H]1CCN(c2cn[nH]c(=O)c2Cl)C1 [P-0171, (R)-1-(5-chloro-6-oxo-1,6-dihydropyridazin-4-yl)pyrrolidin-3-yl ((1r,3R)-3-(phenylsulfonamido)cyclobutyl) carbamate] | 0.001 to 10 | 0.001 to 10
7 | O=CN[C@H]1C[C@H](NC(=O)O[C@@H]2CCN(c3cn[nH]c(=O)c3Cl)C2)C1 [P-0172, (R)-1-(5-chloro-6-oxo-1,6-dihydropyridazin-4-yl)pyrrolidin-3-yl ((1r,3R)-3-formamidocyclobutyl) carbamate] | 0.001 to 10 | 0.001 to 10
8 | O=C(NC1CCCC1)N[C@H]1CC[C@H](NC(=O)O[C@@H]2CCN(c3cn[nH]c(=O)c3Cl)C2)CC1 [P-0173, (R)-1-(5-chloro-6-oxo-1,6-dihydropyridazin-4-yl)pyrrolidin-3-yl ((1r,4R)-4-(3-cyclopentylureido)cyclohexyl) carbamate] | 0.001 to 10 | 0.001 to 10

The next lines start with the values.

Row | IC50 [1] [µM] | IC50 (human CD73) [µM] | SMILES
9 | 0.001 to 10 | 0.001 to 10 | CC(=O)N[C@H]1CC[C@H](NC(=O)O[C@@H]2CCN(c3cn[nH]c(=O)c3Cl)C2)CC1 [P-0165, (R)-1-(5-chloro-6-oxo-1,6-dihydropyridazin-4-yl)pyrrolidin-3-yl ((1r,4R)-4-acetamidocyclohexyl)carbamate]
10 | 0.001 to 10 | 0.001 to 10 | CS(=O)(=O)N[C@H]1C[C@H](NC(=O)O[C@@H]2CCN(c3cn[nH]c(=O)c3Cl)C2)C1 [P-0170, (R)-1-(5-chloro-6-oxo-1,6-dihydropyridazin-4-yl)pyrrolidin-3-yl ((1r,3R)-3-(methylsulfonamido)cyclobutyl)carbamate]
11 | 0.001 to 10 | 0.001 to 10 | O=C(NC1CCCCC1)N[C@H]1CC[C@H](NC(=O)O[C@@H]2CCN(c3cn[nH]c(=O)c3Cl)C2)CC1 [P-0174, (R)-1-(5-chloro-6-oxo-1,6-dihydropyridazin-4-yl)pyrrolidin-3-yl ((1r,4R)-4-(3-cyclohexylureido)cyclohexyl) carbamate]
12 | 0.001 to 10 | 0.001 to 10 | O=C(N[C@H]1CC[C@H](NS(=O)(=O)c2ccc(F)cc2)CC1)O[C@@H]1CCN(c2cn[nH]c(=O)c2Cl)C1 [P-0175, (R)-1-(5-chloro-6-oxo-1,6-dihydropyridazin-4-yl)pyrrolidin-3-yl ((1r,4R)-4-((4-fluorophenyl)sulfonamido)cyclohexyl)carbamate]
